# Measurements published in US6410592B1, “Aminomethylcarboxylic acid derivatives” (Akzo Nobel N.V., priority 1998, dated 2002).
# Counter-ions that a name gives are not always drawn.
# Target: T1, human GlyT-1b transporter (Homo sapiens, UniProt P48067)
# T1 construct: expressed in transfected cells; host or cells: CHO cells, stably transfected, pcDNA3 expression construct
# T1 sequence (P48067 1-652 isoform P48067-3): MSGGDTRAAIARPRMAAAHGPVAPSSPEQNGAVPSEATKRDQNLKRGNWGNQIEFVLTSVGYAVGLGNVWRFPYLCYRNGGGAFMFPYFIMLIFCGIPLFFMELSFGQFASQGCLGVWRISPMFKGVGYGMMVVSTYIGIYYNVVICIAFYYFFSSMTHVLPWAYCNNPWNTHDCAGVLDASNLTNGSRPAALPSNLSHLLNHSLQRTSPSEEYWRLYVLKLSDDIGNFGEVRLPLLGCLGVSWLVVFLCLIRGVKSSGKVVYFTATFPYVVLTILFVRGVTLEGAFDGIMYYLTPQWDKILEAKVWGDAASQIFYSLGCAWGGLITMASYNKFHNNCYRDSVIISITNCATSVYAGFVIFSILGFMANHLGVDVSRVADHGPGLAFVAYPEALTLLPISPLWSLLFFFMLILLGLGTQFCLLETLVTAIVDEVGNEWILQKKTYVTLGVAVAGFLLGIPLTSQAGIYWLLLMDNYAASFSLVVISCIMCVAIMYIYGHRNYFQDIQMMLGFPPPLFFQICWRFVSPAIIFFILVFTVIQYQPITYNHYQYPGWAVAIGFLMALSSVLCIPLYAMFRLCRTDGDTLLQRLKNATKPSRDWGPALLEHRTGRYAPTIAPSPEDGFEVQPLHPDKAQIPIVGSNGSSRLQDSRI
# Assay: glycine uptake in CHO cells heterologously expressing the human GlyT-1b transporter
# Type: cell-based
# Conditions: [3H]glycine uptake, CHO cells stably expressing hGlyT-1b, 5 min preincubation, 10 min uptake, 37° C.
# Method: Method for determination of glycine uptake in CHO cells heterologously expressing the human GlyT-1b transporter.
# cDNA was generated by PCR according to the method described by Kim, K.-M. et al. Mol. Pharmacol. 1994, 45, 608-617. Sequence was verified by dideoxy sequencing using the ALF DNA sequencer™ (Pharmacia) and cloned into the expression construct pcDNA3 (Invitrogen).
# Transfection of hGlyT-1b into CHO cells was performed using a standard calcium phosphate technique as described by Sambrook, J. et al. (1989) in Molecular Cloning: A Laboratory Manual, Cold Spring Harbor Laboratory, Cold Spring Harbor, N.Y.
# Stably transfected cells were selected for 1 week in growth medium containing 1 mg.cm^−3 Geneticin. Individual clones were picked for further analysis and positives passaged routinely as described below.
# Cells stably expressing the hGlyT-1b gene were cultured at 37° C. in a 5% CO2 atmosphere in DMEM—NUT.MIX. F12 with Glutamax-1 (Gibco) containing Geneticin (0.5 mg.cm^−3, Gibco) and supplemented with 10% Fetalclone II (Hyclone). Maintenance culture was carried out in standard 80 cm^2 ventilated flasks (2 m^−6 filter, Nunc) and cells were subcultured by trypsinisation (Sigma) when confluent.
# Cells for uptake studies were plated in 96 well plates (17,000 cells per well) in the absence of Geneticin and cultured for 48 h before use. To measure glycine transport, cells were washed twice with Hanks' balanced salt solution (HBSS) pre-warmed to 37° C. and excess fluid removed before addition of test compounds dissolved in 0.200 cm^3 HBSS. Plates were incubated at 37° C. for 5 minutes before addition of [^3H]glycine (0.050 cm^3, 150 M^−6, 248 Bq.nmol^−1, NEN) and incubation continued for a further 10 minutes. Uptake was terminated by washing cells with ice-cold HBSS before removal of excess fluid and addition of 0.200 cm^3 scintillation cocktail to each well. Plates were sealed with adhesive film, shaken to ensure samples were homogenous before scintillation counting in a plate counter.
# Data were analysed using standard curve fitting procedures to produce a pIC50 value for active compounds (where pIC50 is the negative logarithm of the concentration of test compound causing 50% inhibition of uptake).
row,"pIC50, Inhibition of glycine transport by hGlyT-1",Structure (SMILES)
1,6.8,"COc1ccc2c(c1)CC[C@H](CN(C)CC(=O)[O-])[C@@H]2c1ccccc1.[Li+] (relative stereo) [Example (−)-4, (−)-Lithium cis-N-methyl-N-(6-methoxy-1-phenyl-1,2,3,4-tetrahydronaphthalen-2-ylmethyl) aminomethylcarboxylate]"

# Same assay, conditions: [3H]glycine uptake, CHO cells stably expressing hGlyT-1b, 5 min preincubation, 10 min uptake, 37° C.; read-out: pIC50, Inhibition of glycine transport by hGlyT-1 (converted)
row,Structure (SMILES),IC50
1,"COc1ccc2c(c1)CCC(CN(C)CC(=O)O)C2c1ccccc1 (racemic) [(+/−)-4, Lithium cis-N-methyl-N-(6-methoxy-1-phenyl-1,2,3,4-tetrahydronaphthalen-2-ylmethyl) aminomethylcarboxylate]",501 nM
2,"CN(CC(=O)O)CC1CCc2cc(C(F)(F)F)ccc2C1c1ccc(F)cc1 (racemic) [(+/−)-8, Lithium cis-N-methyl-N-[1-(4-fluorophenyl)-6-trifluoromethyl-1,2,3,4-tetrahydronaphthalen-2-ylmethyl] aminomethylcarboxylate]",126 nM

# More lines, now with the values ahead:
row,IC50,Structure (SMILES)
1,158 nM,"CN(CC(=O)O)CC1CCc2cc(Oc3ccccc3)ccc2C1c1ccccc1 (racemic) [(+/−)-17, Lithium cis-N-methyl-N-(6-phenoxy-1-phenyl-1,2,3,4-tetrahydronaphthalen-2-ylmethyl) aminomethylcarboxylate]"
2,251 nM,"CN(CC(=O)O)CC1CCc2cc(OCC(C)(C)C)ccc2C1c1ccccc1 (single isomer, unassigned; (-)) [Example (−)-34, (−)-Lithium cis-N-methyl-N-[1-phenyl-6-(2,2-dimethylpropyloxy)-1,2,3,4-tetrahydronaphthalen-2-ylmethyl] aminomethylcarboxylate]"
3,251 nM,"CN(CC(=O)O)C[C@H]1CCc2cc(OCC(C)(C)C)ccc2[C@H]1c1ccccc1.Cl (racemic) [(+/−)-34, cis-N-Methyl-N-[6-(2,2-dimethylpropyloxy)-1-phenyl-1,2,3,4-tetrahydronaphthalen-2-ylmethyl] aminomethylcarboxylic acid hydrochloride]"
4,50.1 nM,"CN(CC(=O)O)CC1CCc2cc(C(F)(F)F)ccc2C1c1ccc(F)cc1 (single isomer, unassigned; (-)) [Example (−)-8, (−)-Lithium N-methyl-N-[1-(4-fluorophenyl)-6-trifluoromethyl-1,2,3,4-tetrahydronaphthalen-2-ylmethyl] aminomethylcarboxylate]"
5,251 nM,"Cc1ccc2c(c1)CCC(CN(C)CC(=O)O)C2c1ccccc1 (racemic) [(+/−)-23, Lithium cis-N-methyl-N-(6-methyl-1-phenyl-1,2,3,4-tetrahydronaphthalen-2-ylmethyl) aminomethylcarboxylate]"
6,126 nM,"Cc1ccc2c(c1)CCC(CN(C)CC(=O)O)C2c1ccccc1 (single isomer, unassigned; (-)) [Example (−)-23, (−)-Sodium cis-N-methyl-N-(6-methyl-1-phenyl-1,2,3,4-tetrahydronaphthalen-2-ylmethyl) aminomethylcarboxylate]"
7,100 nM,"CN(CC(=O)O)CC1CCc2cc(Oc3ccccc3)ccc2C1c1ccccc1 (single isomer, unassigned; (-)) [Example (−)-17, (−)-Sodium cis-N-methyl-N-(6-phenoxy-1-phenyl-1,2,3,4-tetrahydronaphthalen-2-ylmethyl) aminomethylcarboxylate]"

# Tested on: not given
# Assay: not given
# Conditions: not given
row,Structure (SMILES),melting point
1,CN(CC(=O)O)C[C@H]1CCc2cc(-c3ccccc3)ccc2[C@H]1c1ccccc1.Cl (relative stereo),210 to 221 °C
2,CN(CC(=O)O)C[C@H]1CCc2cc(OCC3CC3)ccc2[C@H]1c1ccccc1.Cl (relative stereo),173 to 177 °C
3,CN(CC(=O)O)C[C@H]1CCc2cc(OC3CCCCC3)ccc2[C@H]1c1ccccc1.Cl (relative stereo),> 210 °C (dec.)
4,CN(CC(=O)O)C[C@H]1CCc2ccccc2[C@H]1c1ccccc1.Cl (relative stereo),205 to 211 °C (dec.)
5,COc1ccc2c(c1)CC[C@H](CN(C)CC(=O)O)[C@@H]2c1cccc(C)c1.O=C(O)C(F)(F)F (relative stereo),96 to 106 °C
6,CN(CC(=O)O)C[C@H]1CCc2cc(OCc3ccccc3)ccc2[C@H]1c1ccccc1.Cl (relative stereo),200 to 210 °C
7,COC(=O)c1ccc2c(c1)CC[C@H](CN(C)CC(=O)O)[C@@H]2c1ccccc1.Cl (relative stereo),166 to 171 °C
8,CN(CC(=O)O)C[C@H]1CCc2cc(C#N)ccc2[C@H]1c1ccccc1.Cl (relative stereo),197 °C (dec.)

# Other lines, results leading:
row,melting point,Structure (SMILES)
1,168 to 170 °C,"CN(CC(=O)O)CC1CCc2cc(OCC(C)(C)C)ccc2C1c1ccccc1 (single isomer, unassigned; (-)) (as salt: salt) [Example (−)-34, (−)-Lithium cis-N-methyl-N-[1-phenyl-6-(2,2-dimethylpropyloxy)-1,2,3,4-tetrahydronaphthalen-2-ylmethyl] aminomethylcarboxylate]"
2,151 to 155 °C,"CN(CC(=O)O)C[C@H]1CCc2cc(OCC(C)(C)C)ccc2[C@H]1c1ccccc1.Cl (racemic) [(+/−)-34, cis-N-Methyl-N-[6-(2,2-dimethylpropyloxy)-1-phenyl-1,2,3,4-tetrahydronaphthalen-2-ylmethyl] aminomethylcarboxylic acid hydrochloride]"
3,191 to 200 °C,"CN(CC(=O)O)CC1CCc2cc(Oc3ccccc3)ccc2C1c1ccccc1 (racemic) (as salt: salt) [(+/−)-17, Lithium cis-N-methyl-N-(6-phenoxy-1-phenyl-1,2,3,4-tetrahydronaphthalen-2-ylmethyl) aminomethylcarboxylate]"
4,135 to 138 °C,"Cc1ccc2c(c1)CCC(CN(C)CC(=O)O)C2c1ccccc1 (racemic) (as salt: salt) [(+/−)-23, Lithium cis-N-methyl-N-(6-methyl-1-phenyl-1,2,3,4-tetrahydronaphthalen-2-ylmethyl) aminomethylcarboxylate]"
5,161 to 164 °C,"CN(CC(=O)O)CC1CCc2cc(C(F)(F)F)ccc2C1c1ccc(F)cc1 (single isomer, unassigned; (-)) (as salt: salt) [Example (−)-8, (−)-Lithium N-methyl-N-[1-(4-fluorophenyl)-6-trifluoromethyl-1,2,3,4-tetrahydronaphthalen-2-ylmethyl] aminomethylcarboxylate]"
6,137 to 142 °C,"CN(CC(=O)O)CC1CCc2cc(C(F)(F)F)ccc2C1c1ccc(F)cc1 (racemic) (as salt: salt) [(+/−)-8, Lithium cis-N-methyl-N-[1-(4-fluorophenyl)-6-trifluoromethyl-1,2,3,4-tetrahydronaphthalen-2-ylmethyl] aminomethylcarboxylate]"
